From patent US20190119282A1, “IMIDAZOPYRIDAZINES USEFUL AS INHIBITORS OF THE PAR-2 SIGNALING PATHWAY” (Vertex Pharmaceuticals Incorporated, priority 2013, published 2019)

How the values were obtained:
[1] = target: T1, PAR2 (HT-29 cells, SLIGKV activation) (Homo sapiens, UniProt P55085); assay: Ca FLIPR TETRA assay, ANTAGONIST mode, stimulation with 8 μM SLIGKV; assay type: cell-based; details: HT-29 cells, antagonist mode, stimulation with 8 μM SLIGKV
T1 construct: host or cells: HT-29 cells
T1 sequence (P55085 26-397): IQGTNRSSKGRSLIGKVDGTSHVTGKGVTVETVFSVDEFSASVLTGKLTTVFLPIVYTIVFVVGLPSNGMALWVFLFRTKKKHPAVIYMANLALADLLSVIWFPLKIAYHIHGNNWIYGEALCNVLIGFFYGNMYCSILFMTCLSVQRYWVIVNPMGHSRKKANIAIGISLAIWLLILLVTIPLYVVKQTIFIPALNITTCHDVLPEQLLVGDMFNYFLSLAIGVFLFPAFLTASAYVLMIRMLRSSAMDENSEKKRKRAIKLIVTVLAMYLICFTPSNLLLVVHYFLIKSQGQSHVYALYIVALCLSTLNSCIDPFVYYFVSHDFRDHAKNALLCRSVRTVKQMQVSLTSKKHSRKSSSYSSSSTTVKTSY
Summary of the method: (§1)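 FLIPR Tetra Ca2+ read-out in HT-29 cells, calcium 5 dye. Compound preincubation 30 min r.t., with an initial read for agonist activity. Final activator levels: SLIGKV 8 μM, thrombin 1 U/mL, trypsin 3.1 U/mL, UTP 0.6 μM.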

[2] = target: T2, PAR2 (HT-29 cells, trypsin activation) (Homo sapiens, UniProt P55085); assay: Ca FLIPR TETRA assay, ANTAGONIST mode, stimulation with 3.1 U/mL trypsin; assay type: cell-based; details: HT-29 cells, antagonist mode, stimulation with 3.1 U/mL trypsin
T2 construct: host or cells: HT-29 cells
T2 sequence (P55085 26-397): T1 sequence (P55085 26-397)
Summary of the method: as §1

[3] = tested on: Thrombin-stimulated Ca2+ response in HT-29 cells; assay: Ca FLIPR TETRA assay, ANTAGONIST mode, stimulation with 1 U/mL Thrombin; assay type: cell-based, human; details: Homo sapiens; HT-29 cells, antagonist mode, stimulation with 1 U/mL Thrombin
Summary of the method: as §1

[4] = tested on: UTP-stimulated Ca2+ response in HT-29 cells; assay: Ca FLIPR TETRA assay, ANTAGONIST mode, stimulation with 0.6 μM UTP; assay type: cell-based, human; details: Homo sapiens; HT-29 cells, antagonist mode, stimulation with 0.6 μM UTP
Summary of the method: as §1

SMILES | IC50 [1] [nM] | IC50 [2] [nM] | IC50 [3] [nM] | IC50 [4] [nM]
CC(C)(C)c1cc(-c2ccc(F)cc2)nn2cc(C(=O)N3CCN(C(=O)c4ccccn4)CC3(C)C)nc12 [Compound I-284] | 1 | 1.4 | > 1000 | > 1000
CC(C)(C)c1cc(-c2ccc(F)cc2)nn2cc(C(=O)N3CCN(C(=O)c4ncccn4)CC3(C)C)nc12 [Compound I-285] | 1.8 | 2.6 | 650 | > 1000
CC(C)(C)c1cc(-c2ccc(F)cc2)nn2cc(C(=O)N3CCN(C(=O)c4ccncc4)CC3(C)C)nc12 [Compound I-286] | 2.7 | 3.9 | 840 | > 1000
CC(C)(C)c1cc(-c2ccc(F)cc2)nn2cc(C(=O)N3CCN(C(=O)c4cccnc4)CC3(C)C)nc12 [Compound I-287] | 2 | 2.8 | 630 | 980
CC(C)(O)CC(=O)N1CCN(C(=O)c2cn3nc(-c4ccc(F)cc4)cc(C(C)(C)C)c3n2)C(C)(C)C1 [Compound I-289] | 1.5 | 2.5 | 430 | 540
Cc1cn[nH]c1C(=O)N1CCN(C(=O)c2cn3nc(-c4ccc(F)cc4)cc(C(C)(C)C)c3n2)C(C)(C)C1 [Compound I-290] | 3.4 | 3.1 | 530 | 730
Cc1n[nH]cc1C(=O)N1CCN(C(=O)c2cn3nc(-c4ccc(F)cc4)cc(C(C)(C)C)c3n2)C(C)(C)C1 [Compound I-292] | 2.4 | 2.2 | > 1000 | > 1000
CC(C)c1cc(-c2ccc(C(F)F)cc2)nn2cc(C(=O)N3CCN(C(=O)c4ccn[nH]4)CC3(C)C)nc12 [Compound I-293] | 6.6 | 9.4 | > 1000 | > 1000
CC(C)c1cc(-c2ccc(C(F)F)cc2)nn2cc(C(=O)N3CCN(C(=O)c4nc[nH]n4)CC3(C)C)nc12 [Compound I-294] | 8.8 | 13.7 | > 1000 | > 1000
CC(C)c1cc(-c2ccc(C(F)F)cc2)nn2cc(C(=O)N3CCN(C(=O)c4cn[nH]c4)CC3(C)C)nc12 [Compound I-295] | 7.5 | 8.3 | > 1000 | > 1000
CC(C)(C)c1cc(-c2ccc(F)cc2)nn2cc(C(=O)N3CCN(C(=O)c4nnn[nH]4)CC3(C)C)nc12 [Compound I-296] | 32 | 44.7 | > 1000 | > 1000
CC(C)(C)c1cc(-c2ccc(F)cc2)nn2cc(C(=O)N3CCN(C4(CO)CC4)C(=O)C3(C)C)nc12 [Compound I-297] | 9.1 | 12.7 | 300 | > 1000
Cc1ccc(-c2cc(C(C)(C)C)c3nc(C(=O)N4CCNC(=O)C4(C)C)cn3n2)cc1F [Compound I-298] | 2.3 | 1.8 | > 1000 | > 1000
Cc1nnc(C(=O)N2CCN(C(=O)c3cn4nc(-c5ccc(C(F)F)cc5)cc(C(C)C)c4n3)C(C)(C)C2)o1 [Compound I-299] | 37.3 | 53 | > 1000 | > 1000
CC(C)c1cc(-c2ccc(C(F)F)cc2)nn2cc(C(=O)N3CCNC(=O)C3(C)C)nc12 [Compound I-300] | 27.7 | 26.5 | > 1000 | > 1000
Cc1ccc(-c2cc(C(C)C)c3nc(C(=O)N4CCNC(=O)C4(C)C)cn3n2)cc1F [Compound I-301] | 3 | 3 | > 1000 | > 1000
Cc1c[nH]nc1C(=O)N1CCN(C(=O)c2cn3nc(-c4ccc(F)cc4)cc(C(C)C)c3n2)C(C)(C)C1 [Compound I-302] | 10.3 | 13 | 1100 | 900
Cc1n[nH]cc1C(=O)N1CCN(C(=O)c2cn3nc(-c4ccc(F)cc4)cc(C(C)C)c3n2)C(C)(C)C1 [Compound I-304] | 40.3 | 54.3 | > 1000 | > 1000
CC(C)c1cc(-c2ccc(F)cc2)nn2cc(C(=O)N3CCN(C(=O)CC(C)(C)O)CC3(C)C)nc12 [Compound I-305] | 33 | 45 | > 1000 | > 1000
